Data taken from patent US20170267667A1, “[…] AS NON-NUCLEOSIDE REVERSE TRANSCRIPTASE INHIBITORS FOR ANTI-HIV-1 CHEMOTHERAPY” (Purdue Research Foundation, priority 2016, published 2017).

What was measured:
[1] = biological target: HIV-1 reverse transcriptase (Human immunodeficiency virus type 1 group M subtype B, UniProt P04585); assay: RT inhibition assay, incorporation of [32P]GTP into poly(rC)/oligo(dG) template primer; format: biochemical; conditions: poly(rC):oligo(dG) as the template primer; mean of at least two experiments; read-out: IC50 inhibitory activity versus HIV-1 reverse transcriptase
Protocol: RT Inhibition Assay. Inhibition of purified recombinant reverse transcriptase was measured by the incorporation of [^32P]GTP into poly(rC)/oligo(dG) homopolymer template primers, as previously described (Cushman, M., et al., J. Med. Chem. 1996, 39, 3217-3227).

HIV-1RF = assay: XTT cytoprotection assay, HIV-1RF infection in CEM-SS cells; format: cell-based; conditions: for SI (CC50/EC50) CEM-SS cells: CC50/EC50 ratio, HIV-1RF in CEM-SS cells; for EC50: Human immunodeficiency virus 1, inhibition of cytopathicity of HIV-1RF in CEM-SS cells
Protocol: (§1) In Vitro Antiviral Assay. Evaluation of the antiviral activity of compounds against HIV- 1RF infection in CEM-SS cells was performed using the XTT cytoprotection assay, as previously described (Buckheit, R. W. Jr., et al., Antiviral Res. 1995, 26, 117-132). Evaluation of the antiviral activity of compounds against HIV-1IIIB and HIV-2ROD in MT-4 cells was performed using the MTT assay, as previously described (Rice, W. G. and Bader, J. P., Adv. Pharmacol. (San Diego) 1995, 33, 389-438).

HIV-1IIIB = assay: MTT assay, HIV-1IIIB in MT-4 cells; format: cell-based; conditions: for SI (CC50/EC50) MT-4 cells: CC50/EC50 ratio, HIV-1IIIB in MT-4 cells; for EC50: Human immunodeficiency virus 1, MT4, inhibition of cytopathicity of HIV-1IIIB in MT-4 cells
Protocol: as §1

[2] = Cytotoxicity for mock-infected CEM-SS cells; format: cell-based; conditions: human
Protocol: as §1
(§2) Biological Results. The antiviral activities of the ADAMs were evaluated by determining their ability to inhibit the enzymatic activity of HIV-1 RT in vitro (IC50) and protect HIV-infected cells from the cytopathic effects (EC50) of two viral strains (HIV-1RF and HIV-1IIIB). The cytotoxicities (CC50) of the ADAMs were determined on CEM-SS cells and MT-4 cells.

[3] = Cytotoxicity for mock-infected MT-4 cells; format: cell-based; conditions: human
Protocol: as §1, §2

Row | Structure (SMILES) | IC50 [1] [µM] | SI (CC50/EC50) CEM-SS cells (HIV-1RF) | EC50 (HIV-1RF) [µM] | SI (CC50/EC50) MT-4 cells (HIV-1IIIB) | EC50 (HIV-1IIIB) [µM] | CC50 [2] [µM] | CC50 [3] [µM]
1 | CON=C(F)c1cc(/C(=C\CCCc2nnc(C)o2)c2cc(C)c3oc(=O)n(C)c3c2)cc(C)c1OC [ADAM 5, 5-[(1E)-1-(3,7-Dimethyl-2-oxo-2,3-dihydro-1,3-benzoxazol-5-yl)-5-(5-methyl-1,3,4-oxadiazol-2-yl)pent-1-en-1-yl]-N,2-dimethoxy-3-methylbenzenecarboximidoyl Fluoride] | 3.4 | 13 | 0.5 | 76 | 0.35 | 6.5 | 26.5
2 | CON=C(Cl)c1cc(/C(=C\CCCc2nnc(C)o2)c2cc(C)c3onc(OC)c3c2)cc(C)c1OC [ADAM 19, N,2-Dimethoxy-5-[(1Z)-1-(3-methoxy-7-methyl-1,2-benzoxazol-5-yl)-5-(5-methyl-1,3,4-oxadiazol-2-yl)pent-1-en-1-yl]-3-methylbenzenecarboximidoyl Chloride] | 33.8 | 2 | 5.2 | ≦2 | ≥ 7.03 | 9.7 | 17.5
3 | CON=C(F)c1cc(/C(=C\CCCc2nc(C)no2)c2cccc(C#N)c2)cc(C)c1OC [ADAM 11, 5-[(1Z)-1-(3-Cyanophenyl)-5-(3-methyl-1,2,4-oxadiazol-5-yl)pent-1-en-1-yl]-N,2-dimethoxy-3-methylbenzenecarboximidoyl Fluoride] | 5.4 |  | > 100 |  | > 4.04 | 3.5 | 4.04
4 | CON=C(F)c1cc(/C(=C\CCCN2CCOC2=O)c2ccc(C#N)cc2)cc(C)c1OC [ADAM 15, 5-[(1Z)-1-(4-Cyanophenyl)-5-(2-oxo-1,3-oxazolidin-3-yl)pent-1-en-1-yl]-N,2-dimethoxy-3-methylbenzenecarboximidoyl Fluoride] | > 100 |  | > 100 |  | > 21.1 | 6.7 | 21.1
5 | CON=C(Cl)c1cc(/C(=C\CCCc2nnc(C)o2)c2cccc(C#N)c2)cc(C)c1OC [ADAM 21, 5-[(1Z)-1-(3-Cyanophenyl)-5-(5-methyl-1,3,4-oxadiazol-2-yl)pent-1-en-1-yl]-N,2-dimethoxy-3-methylbenzenecarboximidoyl Chloride] | 33.3 | 2 | 5.8 | 6 | 2.66 | 13.2 | 22.3
6 | CON=C(F)c1cc(/C(=C\CCCN2CCOC2=O)c2cccc(C#N)c2)cc(C)c1OC [ADAM 12, 5-[(1Z)-1-(3-Cyanophenyl)-5-(2-oxo-1,3-oxazolidin-3-yl)pent-1-en-1-yl]-N,2-dimethoxy-3-methylbenzenecarboximidoyl Fluoride] | > 100 |  | > 100 |  | > 1.66 | 1.66 | 1.66
7 | CON=C(Cl)c1cc(/C(=C\CCCc2nc(C)no2)c2cccc(C#N)c2)cc(C)c1OC [ADAM 22, 5-[(1Z)-1-(3-Cyanophenyl)-5-(3-methyl-1,2,4-oxadiazol-5-yl)pent-1-en-1-yl]-N,2-dimethoxy-3-methylbenzenecarboximidoyl Chloride] | > 100 | 7 | 3.5 | 41 | 2.69 | 25.5 | 110
8 | CON=C(Cl)c1cc(/C(=C\CCCc2nnc(C)o2)c2ccc(C#N)cc2)cc(C)c1OC [ADAM 23, 5-[(1Z)-1-(4-Cyanophenyl)-5-(5-methyl-1,3,4-oxadiazol-2-yl)pent-1-en-1-yl]-N,2-dimethoxy-3-methylbenzenecarboximidoyl Chloride] | 32.5 | 7 | 2.6 | 8 | 3.64 | 18.1 | 30.2
9 | CON=C(F)c1cc(/C(=C\CCCc2nnc(C)o2)c2cc(C)c3onc(OC)c3c2)cc(C)c1OC [ADAM 7, N,2-Dimethoxy-5-[(1Z)-1-(3-methoxy-7-methyl-1,2-benzoxazol-5-yl)-5-(5-methyl-1,3,4-oxadiazol-2-yl)pent-1-en-1-yl]-3-methylbenzenecarboximidoyl Fluoride] | 1.4 | 7 | 1.9 | 6 | 2.86 | 13.9 | 15.8
10 | CON=C(Cl)c1cc(/C(=C\CCCN2CCOC2=O)c2cc(C)c3oc(=O)n(C)c3c2)cc(C)c1OC [ADAM 18, 5-[(1E)-1-(3,7-Dimethyl-2-oxo-2,3-dihydro-1,3-benzoxazol-5-yl)-5-(2-oxo-1,3-oxazolidin-3-yl)pent-1-en-1-yl]-N,2-dimethoxy-3-methylbenzenecarboximidoyl Chloride] | 62.9 |  | > 100 |  | > 5.19 | 5.99 | 5.19
11 | CON=C(F)c1cc(/C(=C\CCCc2nnc(C)o2)c2ccc(C#N)cc2)cc(C)c1OC [ADAM 13, 5-[(1Z)-1-(4-Cyanophenyl)-5-(5-methyl-1,3,4-oxadiazol-2-yl)pent-1-en-1-yl]-N,2-dimethoxy-3-methylbenzenecarboximidoyl Fluoride] | 44.4 |  | > 100 | ≦1 | ≥ 9 | 6.7 | 11.4
12 | CON=C(Cl)c1cc(/C(=C\CCCc2nc(C)no2)c2cc(C)c3oc(=O)n(C)c3c2)cc(C)c1OC [ADAM 17, 5-[(1E)-1-(3,7-Dimethyl-2-oxo-2,3-dihydro-1,3-benzoxazol-5-yl)-5-(3-methyl-1,2,4-oxadiazol-5-yl)pent-1-en-1-yl]-N,2-dimethoxy-3-methylbenzenecarboximidoyl Chloride] | 4.19 | 5 | 0.51 | 59 | 0.5 | 2.37 | 29.4
13 | CON=C(F)c1cc(/C(=C\CCCN2CCOC2=O)c2cc(C)c3oc(=O)n(C)c3c2)cc(C)c1OC [ADAM 6, 5-[(1E)-1-(3,7-Dimethyl-2-oxo-2,3-dihydro-1,3-benzoxazol-5-yl)-5-(2-oxo-1,3-oxazolidin-3-yl)pent-1-en-1-yl]-N,2-dimethoxy-3-methylbenzenecarboximidoyl Fluoride] | 2.37 |  | > 100 |  | > 7.53 | 5.04 | 7.53
14 | CON=C(F)c1cc(/C(=C\CCCc2nc(C)no2)c2cc(C)c3onc(OC)c3c2)cc(C)c1OC [ADAM 8, N,2-Dimethoxy-5-[(1Z)-1-(3-methoxy-7-methyl-1,2-benzoxazol-5-yl)-5-(3-methyl-1,2,4-oxadiazol-5-yl)pent-1-en-1-yl]-3-methylbenzenecarboximidoyl Fluoride] | 1.85 | 3 | 2.04 | 2 | 4.07 | 5.39 | 9.66
15 | CO/N=C(\Cl)CCC/C=C(\c1cc(C)c(OC)c(C(=O)SC)c1)c1cc(C)c2onc(OC)c2c1 [ADAM 27, S-Methyl 5-[(1Z,6Z)-6-Chloro-6-(methoxyimino)-1-(3-methoxy-7-methyl-1,2-benzoxazol-5-yl)hex-1-en-1-yl]-2-methoxy-3-methylbenzenecarbothioate] | 36.4 | 3 | 2.42 | 5 | 3.27 | 7.2 | 16.3
16 | CO/N=C(\Cl)CCC/C=C(/c1cccc(C#N)c1)c1cc(C)c(OC)c(C(=O)SC)c1 [ADAM 28, S-Methyl 5-[(1Z,6Z)-6-Chloro-1-(3-cyanophenyl)-6-(methoxyimino)hex-1-en-1-yl]-2-methoxy-3-methylbenzenecarbothioate] | 45.3 | 52 | 1.46 | 59 | 2.43 | 75.5 | 143
17 | CO/N=C(\Cl)CCC/C=C(/c1ccc(C#N)cc1)c1cc(C)c(OC)c(C(=O)SC)c1 [ADAM 29, S-Methyl 5-[(1Z,6Z)-6-Chloro-1-(4-cyanophenyl)-6-(methoxyimino)hex-1-en-1-yl]-2-methoxy-3-methylbenzenecarbothioate] | 12 | 25 | 2.29 | 33 | 3.26 | 56.5 | 109
18 | CON=C(Cl)c1cc(/C(=C\CCCN2CCOC2=O)c2ccc(C#N)cc2)cc(C)c1OC [ADAM 25, 5-[(1Z)-1-(4-Cyanophenyl)-5-(2-oxo-1,3-oxazolidin-3-yl)pent-1-en-1-yl]-N,2-dimethoxy-3-methylbenzenecarboximidoyl Chloride] | 42.1 |  | > 100 |  | > 6.48 | 6.48 | 6.48
